Measurements as given in paper PMC8201443 (Journal of Medicinal Chemistry, 2021).
“Also recorded” adds a separate entry of the source. Read-outs that look alike come from different tables or passages of the source. One block for each compound: values may come before it.

Legend:
MV4-11 cells [1] = experiment: Cell viability; assay type: cell-based, human; conditions: for activity in cells (in words): cellular assays of Table 2; for EC50: Homo sapiens
MB002 cells = experiment: Cell viability; assay type: cell-based; conditions: Homo sapiens, MB002, 72 h, read-out: EC50 (nM) MB002
[2] = system: MV4-11 cells stably expressing GSPT1(G575N)-FLAG; assay type: cell-based, human
GSPT1(G575N) = GSPT1(G575N) (Homo sapiens, UniProt P15170, G437N); assay type: cell-based
GSPT1(G575N), sequence (Q96SW2 whole entry partner): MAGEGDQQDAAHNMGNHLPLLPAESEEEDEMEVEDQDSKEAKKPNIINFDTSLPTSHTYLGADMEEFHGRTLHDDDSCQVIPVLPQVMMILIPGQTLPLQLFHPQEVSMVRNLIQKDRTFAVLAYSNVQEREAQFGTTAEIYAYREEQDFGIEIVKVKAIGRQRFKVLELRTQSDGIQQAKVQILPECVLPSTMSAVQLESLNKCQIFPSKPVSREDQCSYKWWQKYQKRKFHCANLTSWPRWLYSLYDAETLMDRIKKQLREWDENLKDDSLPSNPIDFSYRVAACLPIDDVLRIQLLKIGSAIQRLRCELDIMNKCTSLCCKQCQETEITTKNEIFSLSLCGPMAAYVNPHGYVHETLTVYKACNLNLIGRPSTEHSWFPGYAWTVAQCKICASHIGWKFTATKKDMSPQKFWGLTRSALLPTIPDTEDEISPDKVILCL
GSPT1(G575N), sequence (Q16531 whole entry partner): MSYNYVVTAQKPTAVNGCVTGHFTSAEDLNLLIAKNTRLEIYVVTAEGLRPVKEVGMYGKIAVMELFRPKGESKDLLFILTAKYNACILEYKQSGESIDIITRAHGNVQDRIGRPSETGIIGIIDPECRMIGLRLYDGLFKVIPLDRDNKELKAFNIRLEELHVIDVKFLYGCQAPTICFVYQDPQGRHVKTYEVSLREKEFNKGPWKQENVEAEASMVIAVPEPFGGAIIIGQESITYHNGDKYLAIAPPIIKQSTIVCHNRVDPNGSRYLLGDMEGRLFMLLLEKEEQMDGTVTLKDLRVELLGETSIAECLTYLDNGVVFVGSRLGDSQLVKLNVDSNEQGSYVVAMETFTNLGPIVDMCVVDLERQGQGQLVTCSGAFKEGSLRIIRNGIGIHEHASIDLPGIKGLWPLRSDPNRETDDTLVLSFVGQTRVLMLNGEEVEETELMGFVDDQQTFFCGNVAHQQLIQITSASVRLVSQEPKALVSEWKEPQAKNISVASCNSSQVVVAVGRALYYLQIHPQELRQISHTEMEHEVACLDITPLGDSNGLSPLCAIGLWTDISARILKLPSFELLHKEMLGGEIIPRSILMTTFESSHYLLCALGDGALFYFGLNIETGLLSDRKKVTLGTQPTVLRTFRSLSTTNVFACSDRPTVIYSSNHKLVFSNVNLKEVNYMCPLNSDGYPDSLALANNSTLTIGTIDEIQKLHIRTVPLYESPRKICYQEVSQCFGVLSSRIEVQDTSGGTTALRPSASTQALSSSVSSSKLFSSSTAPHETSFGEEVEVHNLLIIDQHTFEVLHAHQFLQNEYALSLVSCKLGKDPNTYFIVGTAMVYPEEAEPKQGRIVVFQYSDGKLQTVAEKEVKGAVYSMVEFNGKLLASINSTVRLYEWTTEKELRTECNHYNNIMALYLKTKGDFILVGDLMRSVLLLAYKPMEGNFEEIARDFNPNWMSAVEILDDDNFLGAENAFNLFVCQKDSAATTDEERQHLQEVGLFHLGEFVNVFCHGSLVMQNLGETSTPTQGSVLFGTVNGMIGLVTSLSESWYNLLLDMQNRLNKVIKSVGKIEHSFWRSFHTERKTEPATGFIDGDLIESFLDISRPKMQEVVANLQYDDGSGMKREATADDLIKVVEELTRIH
GSPT1(G575N), sequence (P15170 1-637 isoform P15170-3 G575N): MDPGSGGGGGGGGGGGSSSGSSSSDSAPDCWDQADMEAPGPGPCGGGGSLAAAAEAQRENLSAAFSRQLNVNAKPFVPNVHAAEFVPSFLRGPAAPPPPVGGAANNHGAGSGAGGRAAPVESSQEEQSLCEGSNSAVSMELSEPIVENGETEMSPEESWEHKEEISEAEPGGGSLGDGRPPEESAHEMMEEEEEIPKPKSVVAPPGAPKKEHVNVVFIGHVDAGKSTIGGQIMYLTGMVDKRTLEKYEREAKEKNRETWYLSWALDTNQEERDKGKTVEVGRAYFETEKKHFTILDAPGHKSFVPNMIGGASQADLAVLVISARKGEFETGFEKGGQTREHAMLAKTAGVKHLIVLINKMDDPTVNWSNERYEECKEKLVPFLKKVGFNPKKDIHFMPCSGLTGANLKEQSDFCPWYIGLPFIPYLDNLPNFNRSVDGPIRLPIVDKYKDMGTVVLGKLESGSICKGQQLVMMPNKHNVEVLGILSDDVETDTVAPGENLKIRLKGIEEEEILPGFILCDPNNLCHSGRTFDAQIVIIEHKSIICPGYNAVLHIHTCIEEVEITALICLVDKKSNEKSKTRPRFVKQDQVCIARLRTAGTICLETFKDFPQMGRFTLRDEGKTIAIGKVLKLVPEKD

IKZF1 [3] = molecular target: T1, IKZF1 (Homo sapiens, UniProt Q13422); conditions: for IKZF1 protein levels in GSPT1(G575N) mutant cell line (in words): MV4-11 GSPT1(G575N)-FLAG cells, 24 h; for IKZF1 degradation after 4 h (in words): MV4-11 cells, any concentration tested
T1 sequence (Q96SW2 whole entry partner): as the sequence (Q96SW2 whole entry partner) above
T1 sequence (Q16531 whole entry partner): as the sequence (Q16531 whole entry partner) above
T1 sequence (Q13422 whole entry): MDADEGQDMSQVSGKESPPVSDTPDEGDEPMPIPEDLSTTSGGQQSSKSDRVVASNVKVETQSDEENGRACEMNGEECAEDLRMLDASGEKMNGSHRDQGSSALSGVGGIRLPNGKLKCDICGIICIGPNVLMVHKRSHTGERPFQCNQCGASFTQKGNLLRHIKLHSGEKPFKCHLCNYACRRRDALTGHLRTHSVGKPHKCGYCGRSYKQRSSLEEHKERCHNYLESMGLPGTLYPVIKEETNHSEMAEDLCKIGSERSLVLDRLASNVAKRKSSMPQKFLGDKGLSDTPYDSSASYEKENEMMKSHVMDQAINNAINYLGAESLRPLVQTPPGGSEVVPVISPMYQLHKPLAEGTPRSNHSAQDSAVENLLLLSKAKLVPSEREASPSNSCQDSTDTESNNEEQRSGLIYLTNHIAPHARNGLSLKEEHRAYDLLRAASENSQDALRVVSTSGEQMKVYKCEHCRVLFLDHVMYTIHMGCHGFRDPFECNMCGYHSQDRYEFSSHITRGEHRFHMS

[4] = system: CRBN knockout MV4-11 cells; experiment: Cell viability, wild-type vs CRBN knockout MV4-11 cells; assay type: cell-based, human; conditions: 3 days
IKZF1 [5] = molecular target: T1, IKZF1; experiment: Immunoblot, IKZF1 degradation in MHH-CALL-4 cells; assay type: cell-based; conditions: any concentration tested
[6] = system: MV4-11, MHH-CALL-4, HD-MB03, MB002 and MB004 cells; assay type: cell-based, human
IKZF1(ZF2)-CRBN/DDB1 = IKZF1(ZF2)-CRBN/DDB1 (Homo sapiens, UniProt Q96SW2); experiment: AlphaScreen assay, IKZF1; assay type: biochemical; conditions: dose response up to highest concentration
IKZF1(ZF2)-CRBN/DDB1, sequence (Q96SW2 40-442 limits assumed): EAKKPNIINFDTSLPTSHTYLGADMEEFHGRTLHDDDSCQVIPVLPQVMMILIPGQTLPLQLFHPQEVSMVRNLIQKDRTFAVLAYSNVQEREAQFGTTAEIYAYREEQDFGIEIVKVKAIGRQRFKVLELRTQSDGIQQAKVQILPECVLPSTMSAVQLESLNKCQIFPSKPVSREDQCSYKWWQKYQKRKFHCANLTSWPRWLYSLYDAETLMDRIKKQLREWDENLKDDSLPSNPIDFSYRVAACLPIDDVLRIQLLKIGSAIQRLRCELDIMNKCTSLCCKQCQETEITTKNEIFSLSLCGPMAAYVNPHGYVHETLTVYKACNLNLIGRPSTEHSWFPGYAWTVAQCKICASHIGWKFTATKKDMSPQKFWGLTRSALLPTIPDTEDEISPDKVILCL
IKZF1(ZF2)-CRBN/DDB1, sequence (Q16531 whole entry partner): as the sequence (Q16531 whole entry partner) above

caspase 3/7 = experiment: Caspase-Glo 3/7 activity assay in MV4-11 cells; assay type: cell-based, human; conditions: MV4-11, 10 and 100 nM; timepoints 4, 8 and 24 h
MV4-11 cells [7] = experiment: Lenalidomide competition assay, MV4-11 viability; assay type: cell-based, human; conditions: MV4-11, co-treatment with 10 μM lenalidomide, 3 days
hGSPT1-HiBit = hGSPT1-HiBit (Homo sapiens, UniProt P15170+Q96SW2); experiment: hGSPT1 HiBiT assay in HEK293 cells; assay type: cell-based; conditions: SAR discussion of Table 2
hGSPT1-HiBit, sequence (P15170 1-637 isoform P15170-3): as the sequence (P15170 1-637 isoform P15170-3 G575N) above, with N575G counted along it
hGSPT1-HiBit, sequence (Q96SW2 whole entry): as the sequence (Q96SW2 whole entry partner) above
hGSPT1-HiBit, sequence (Q16531 whole entry partner): as the sequence (Q16531 whole entry partner) above

[8] = Liver microsomes stability assay, mouse; assay type: in vitro ADME; conditions: CD-1, mouse, pH 7.4
MV4-11 cells [9] = experiment: TMT quantitative proteomics in MV4-11 cells; assay type: cell-based, human; conditions: 1 μM, 4 h
[10] = Liver microsomes stability assay, human; assay type: in vitro ADME; conditions: pooled liver microsomes, pH 7.4
GSPT1 = GSPT1 (Homo sapiens, UniProt P15170+Q96SW2); experiment: Immunoblot, GSPT1 degradation in MV4-11 cells; assay type: cell-based; conditions: MV4-11, 4 h
GSPT1, sequence (P15170 1-637 isoform P15170-3): as the sequence (P15170 1-637 isoform P15170-3 G575N) above, with N575G counted along it
GSPT1, sequence (Q96SW2 whole entry): as the sequence (Q96SW2 whole entry partner) above
GSPT1, sequence (Q16531 whole entry partner): as the sequence (Q16531 whole entry partner) above

[11] = more potent than lenalidomide; cited from earlier work

Structure (SMILES): Cc1ccccc1S(=O)(=O)Nc1ccc2c(c1)C(=O)N(C1CCC(=O)NC1=O)C2=O (stereo not shown) [compound 13, N-(2-(2,6-Dioxopiperidin-3-yl)-1,3-dioxoisoindolin-5-yl)-2-methylbenzenesulfonamide]
activity in cells (in words) (MV4-11 cells [1]): lack of potent cell activity

Structure (SMILES): O=C1CCC(N2C(=O)c3ccc(NS(=O)(=O)c4cccc(Cl)c4)cc3C2=O)C(=O)N1 (stereo not shown) [compound 15, 3-Chloro-N-(2-(2,6-dioxopiperidin-3-yl)-1,3-dioxoisoindolin-5-yl)benzenesulfonamide]
activity in cells (in words) (MV4-11 cells [1]): lack of potent cell activity

degradation of GSPT1(G575N) mutant (in words) (GSPT1(G575N)): not degraded | IKZF1 protein levels in GSPT1(G575N) mutant cell line (in words) (IKZF1 [3]): unaffected | IKZF1 degradation after 4 h (in words) (IKZF1 [3]): did not significantly degrade IKZF1 | IKZF1 degradation after 4 h (in words) (IKZF1 [5]): did not significantly degrade IKZF1 | EC50 (MV4-11 cells [1]; MV4-11, 72 h, read-out: EC50 (nM) MV4-11): 52 nM | EC50 (MV4-11 cells [1]; MV4-11, read-out: MV4-11 EC50 (μM)): 52 nM
Structure (SMILES): Cc1c(Cl)cccc1S(=O)(=O)Nc1ccc2c(c1)C(=O)N(C1CCC(=O)NC1=O)C2=O (stereo not shown) [compound 7, 3-Chloro-N-(2-(2,6-dioxopiperidin-3-yl)-1,3-dioxoisoindolin-5-yl)-2-methylbenzenesulfonamide]
EC50 (MB002 cells): 5010 nM | antiproliferation effect in cells expressing GSPT1(G575N) (in words) [2]: completely abrogated | antiproliferative activity in the absence of CRBN (in words) [4]: abolished | antiproliferative effect across the five cell lines (in words) [6]: demonstrated antiproliferative activities across the panel | IKZF1(ZF2)-CRBN/DDB1 complex formation, AlphaScreen signal (in words) (IKZF1(ZF2)-CRBN/DDB1): neither 6 nor 7 showed a signal; also recorded: showed no effect even at the highest concentration | timepoint at which caspase activation was observed (caspase 3/7): 24 h | antiproliferative effect in the presence of lenalidomide (in words) (MV4-11 cells [7]): abrogating the antiproliferative effects

Structure (SMILES): Nc1cccc2c1C(=O)N(C1CCC(=O)NC1=O)C2=O (stereo not shown) [pomalidomide]
antiproliferative effect across the five cell lines (in words) [6]: insensitive

GSPT1 degradation (in words) (hGSPT1-HiBit): potent degrader of GSPT1
Structure (SMILES): O=C1CCC(N2C(=O)c3ccc(NS(=O)(=O)c4ccccc4C(F)(F)F)cc3C2=O)C(=O)N1 (stereo not shown) [compound 14, N-(2-(2,6-Dioxopiperidin-3-yl)-1,3-dioxoisoindolin-5-yl)-2-(trifluoromethyl)benzenesulfonamide]

CLint scaled at 4 h, 10 µM [8]: 12 mL/min/kg | degradation of GSPT1(G575N) mutant (in words) (GSPT1(G575N)): not degraded | IKZF1 protein levels in GSPT1(G575N) mutant cell line (in words) (IKZF1 [3]): unaffected | IKZF1 degradation after 4 h (in words) (IKZF1 [3]): did not significantly degrade IKZF1 | IKZF1 degradation after 4 h (in words) (IKZF1 [5]): did not significantly degrade IKZF1 | CLint scaled at 4 h, 10 µM [10]: 4 mL/min/kg
Structure (SMILES): O=C1CCC(N2C(=O)c3ccc(NS(=O)(=O)c4ccccc4OC(F)(F)F)cc3C2=O)C(=O)N1 (stereo not shown) [compound 6, N-(2-(2,6-Dioxopiperidin-3-yl)-1,3-dioxoisoindolin-5-yl)-2-(trifluoromethoxy)benzenesulfonamide]
EC50 (MB002 cells): 726 nM | antiproliferation effect in cells expressing GSPT1(G575N) (in words) [2]: completely abrogated | abundance of CNTNAP4 and SERPINF1 (in words) (MV4-11 cells [9]): less pronounced but statistically significant reductions | abundance of IMiD neosubstrates IKZF1/3 and CK1α (in words) (MV4-11 cells [9]): not affected | proteins most reduced in abundance (in words) (MV4-11 cells [9]; 8927 quantified proteins): reduced most potently and selectively abundance of GSPT1 and GSPT2 | antiproliferative activity in the absence of CRBN (in words) [4]: abolished | antiproliferative effect across the five cell lines (in words) [6]: demonstrated antiproliferative activities across the panel | IKZF1(ZF2)-CRBN/DDB1 complex formation, AlphaScreen signal (in words) (IKZF1(ZF2)-CRBN/DDB1): neither 6 nor 7 showed a signal; also recorded: showed no effect even at the highest concentration | timepoint at which caspase activation was observed (caspase 3/7): 8 h | antiproliferative effect in the presence of lenalidomide (in words) (MV4-11 cells [7]): abrogating the antiproliferative effects | activity in cells (in words) (MV4-11 cells [1]): most potent compound in the series

Structure (SMILES): O=C1CCC(N2C(=O)c3ccccc3C2=O)C(=O)N1 (stereo not shown) [thalidomide]
antiproliferative effect across the five cell lines (in words) [6]: insensitive

Structure (SMILES): Cc1ccc(S(=O)(=O)Nc2ccc3c(c2)C(=O)N(C2CCC(=O)NC2=O)C3=O)cc1Cl (stereo not shown) [compound 9, 3-Chloro-N-(2-(2,6-dioxopiperidin-3-yl)-1,3-dioxoisoindolin-5-yl)-4-methylbenzenesulfonamide]
activity in cells (in words) (MV4-11 cells [1]): no effect in cellular assays

Structure (SMILES): Cc1ccc(NC(=O)NCc2ccc3c(c2)CN(C2CCC(=O)NC2=O)C3=O)cc1Cl (stereo not shown) [CC-885]
antiproliferative effect across the five cell lines (in words) [6]: displayed antiproliferative effects in all five cell lines

Structure (SMILES): O=C1CCC(N2C(=O)c3ccc(NS(=O)(=O)c4ccccc4)cc3C2=O)C(=O)N1 (stereo not shown) [compound 8, N-(2-(2,6-Dioxopiperidin-3-yl)-1,3-dioxoisoindolin-5-yl)benzenesulfonamide]
activity in cells (in words) (MV4-11 cells [1]): inactive

Structure (SMILES): Nc1cccc2c1CN(C1CCC(=O)NC1=O)C2=O (stereo not shown) [lenalidomide]
antiproliferative effect across the five cell lines (in words) [6]: insensitive

effect on IKZF1 protein level (in words) (IKZF1 [3]; immunoblot, MV4-11, 4 h): no effects on the protein levels | effect on GSPT1 protein level (in words) (GSPT1): no effects on the protein levels
Structure (SMILES): O=C1CCC(N2C(=O)c3ccc(NS(=O)(=O)c4cccc(OC(F)(F)F)c4)cc3C2=O)C(=O)N1 (stereo not shown) [compound 10, N-(2-(2,6-Dioxopiperidin-3-yl)-1,3-dioxoisoindolin-5-yl)-3-(trifluoromethoxy)benzenesulfonamide]
activity in cells (in words) (MV4-11 cells [1]): no activity in cells

Structure (SMILES): COc1ccccc1S(=O)(=O)Nc1ccc2c(c1)C(=O)N(C1CCC(=O)NC1=O)C2=O (stereo not shown) [compound 12, N-(2-(2,6-Dioxopiperidin-3-yl)-1,3-dioxoisoindolin-5-yl)-2-methoxybenzenesulfonamide]
activity in cells (in words) (MV4-11 cells [1]): inactive in cells

Structure (SMILES): O=C1CC[C@H](N2Cc3c(OCc4ccc(CN5CCOCC5)cc4)cccc3C2=O)C(=O)N1 [CC-220, reference compound]
potency in cells relative to lenalidomide [11]: 10 fold | IKZF1(ZF2)-CRBN/DDB1 complex formation, AlphaScreen signal (in words) (IKZF1(ZF2)-CRBN/DDB1): strong dose response; also recorded: dose-dependent AlphaScreen signal

Structure (SMILES): O=C1CCC(N2C(=O)c3ccc(NS(=O)(=O)c4ccc(OC(F)(F)F)cc4)cc3C2=O)C(=O)N1 (stereo not shown) [compound 11, N-(2-(2,6-Dioxopiperidin-3-yl)-1,3-dioxoisoindolin-5-yl)-4-(trifluoromethoxy)benzenesulfonamide]
activity in cells (in words) (MV4-11 cells [1]): no activity in cells
